Assay results published in the supplement of paper PMC10307832.

Assays:
Assay in all cases: relative viability (nuclei count vs DMSO), 5 days (fraction); higher = more cells survive
Idelalisib + Lapatinib = compound: CC[C@H](Nc1ncnc2[nH]cnc12)c1nc2cccc(F)c2c(=O)n1-c1ccccc1 [Idelalisib] + CS(=O)(=O)CCNCc1ccc(-c2ccc3ncnc(Nc4ccc(OCc5cccc(F)c5)c(Cl)c4)c3c2)o1 [Lapatinib] (partner 2 µM)
Outline: (§1)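 The day after seeding in 1536-well plates, lung cancer cell lines were treated by pin tool with a single drug, or with a fixed anchor-drug dose together with five library-drug doses (not always all listed) in √10 steps. After 5 days, a combined fix-and-stain solution (final 0.05% Triton X-100, 1% formaldehyde, 1 ug/ml Hoechst) was added. Nuclei counted on 4× images gave relative viability as treated counts over vehicle counts, reported as the median of duplicate plates.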

Pemetrexed + Lapatinib = compound: Nc1nc2[nH]cc(CCc3ccc(C(=O)N[C@@H](CCC(=O)O)C(=O)O)cc3)c2c(=O)[nH]1 [Pemetrexed] + CS(=O)(=O)CCNCc1ccc(-c2ccc3ncnc(Nc4ccc(OCc5cccc(F)c5)c(Cl)c4)c3c2)o1 [Lapatinib] (partner 2 µM)
Outline: as §1

Pemetrexed + Linsitinib = compound: Nc1nc2[nH]cc(CCc3ccc(C(=O)N[C@@H](CCC(=O)O)C(=O)O)cc3)c2c(=O)[nH]1 [Pemetrexed] + C[C@]1(O)C[C@@H](c2nc(-c3ccc4ccc(-c5ccccc5)nc4c3)c3c(N)nccn32)C1 [Linsitinib] (partner 1 µM)
Outline: as §1

Idelalisib + Vorinostat = compound: CC[C@H](Nc1ncnc2[nH]cnc12)c1nc2cccc(F)c2c(=O)n1-c1ccccc1 [Idelalisib] + O=C(CCCCCCC(=O)Nc1ccccc1)NO [Vorinostat] (partner 1 µM)
Outline: as §1

Cell Line	relative viability (Idelalisib + Lapatinib; first compound 0.04 µM)	relative viability (Idelalisib + Lapatinib; first compound 0.1265 µM)	relative viability (Idelalisib + Lapatinib; first compound 0.4 µM)	relative viability (Idelalisib + Lapatinib; first compound 1.265 µM)	relative viability (Idelalisib + Lapatinib; first compound 4 µM)	relative viability (Pemetrexed + Lapatinib; first compound 0.002 µM)	relative viability (Pemetrexed + Lapatinib; first compound 0.006325 µM)	relative viability (Pemetrexed + Lapatinib; first compound 0.02 µM)	relative viability (Pemetrexed + Lapatinib; first compound 0.06325 µM)	relative viability (Pemetrexed + Lapatinib; first compound 0.2 µM)	relative viability (Pemetrexed + Linsitinib; first compound 0.002 µM)	relative viability (Pemetrexed + Linsitinib; first compound 0.006325 µM)	relative viability (Pemetrexed + Linsitinib; first compound 0.02 µM)	relative viability (Pemetrexed + Linsitinib; first compound 0.06325 µM)	relative viability (Pemetrexed + Linsitinib; first compound 0.2 µM)	relative viability (Idelalisib + Vorinostat; first compound 0.04 µM)	relative viability (Idelalisib + Vorinostat; first compound 0.1265 µM)	relative viability (Idelalisib + Vorinostat; first compound 0.4 µM)	relative viability (Idelalisib + Vorinostat; first compound 1.265 µM)	relative viability (Idelalisib + Vorinostat; first compound 4 µM)
NCI-H2023	0.837	1.01	0.525	0.775	0.724	0.292	0.726	1.01	0.66	0.202	0.738	0.537	0.693	0.55	0.304	0.909	0.702	0.469	0.375	0.682
Calu-6	1.04	1.06	1.05	1.02	1.06	1.09	1.02	1.18	0.999	0.84		0.964	1.08	0.977	0.72					
SW 900																0.442	0.548	0.407	0.514	0.441
HOP-62	1	0.912		1.47	1.06	0.885	1.07	0.898	1.14	0.982	0.903	0.788	0.959	0.671	0.922	0.669	0.66	0.576	0.619	0.491
H3255	0.297	0.283	0.258	0.233	0.203		0.15	0.278	0.245	0.296	0.83	0.976	1.04	0.946	0.768	0.978	0.853	0.796	0.91	0.736
NCI-H1734	0.93	1.03	0.989	0.958	0.98	0.724	0.995	1.13	1.01	0.525	0.909	0.818	0.971	0.861	0.718	0.914	0.846	0.627	0.642	0.755
SK-MES-1	0.467	0.445	0.432	0.443	0.396	0.473	0.423	0.469	0.453	0.457	1.01	1.02	1.07	0.984	0.955	1.19	1.06	0.974	0.395	1.04
NCI-H1792	0.465	0.942	0.903	0.878	0.918	0.829	0.895	0.861	0.875	0.862	0.499	0.532	0.57	0.469	0.519					
EKVX	0.21	0.234	0.184	0.201	0.186	0.17	0.191	0.194	0.185	0.182	0.957	1.03	1.02	0.953	0.718	0.726	0.792	0.676	0.703	0.399
